Results reported in paper PMC10663540, “Structure-based discovery of dual pathway inhibitors for SARS-CoV-2 entry” (Nature Communications, 2023).
Values joined by “and” are separate entries in the source; they are usually repeats but may differ in a detail not shown here. Equal entries are not always repeated. Where two headings read alike, the source gives them in different places.

What was measured:
human CTSL = target: T1, human CTSL (Homo sapiens, UniProt P07711); assay: FRET enzymatic inhibition assay of CTSL (IC50 measurement); type: biochemical; conditions: substrate Cbz-Phe-Arg-AMC, pH 5.5; mean ± SD, four replicates
T1 construct: made in house
T1 sequence (P07711 114-333): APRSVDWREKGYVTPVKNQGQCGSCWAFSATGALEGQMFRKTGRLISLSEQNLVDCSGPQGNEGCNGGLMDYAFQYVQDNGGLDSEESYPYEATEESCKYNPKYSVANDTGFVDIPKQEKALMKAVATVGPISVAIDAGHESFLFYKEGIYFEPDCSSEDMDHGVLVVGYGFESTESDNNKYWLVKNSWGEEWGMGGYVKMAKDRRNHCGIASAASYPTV

human CTSB = target: T2, human CTSB (Homo sapiens, UniProt P07858); assay: biochemical
T2 construct: […]; made in house

[1] = tested on: SARS-CoV-2-S pseudotyped virus Omicron BA.2; assay: microbe, parasite or virus in culture; type: cell-based
[2] = tested on: SARS-CoV-2-S pseudotyped virus Omicron BA.2.12.1; assay: microbe, parasite or virus in culture; type: cell-based
[3] = tested on: SARS-CoV-2-S pseudotyped virus Omicron BA.4/BA.5; assay: microbe, parasite or virus in culture; type: cell-based
Calu-3 cells = conditions: rep1-rep3
in vitro = conditions: human
[4] = Severe acute respiratory syndrome coronavirus 2, Huh-7, 120 h, 212-148 20 μM, Fig. 5d
[5] = Severe acute respiratory syndrome coronavirus 2, Huh-7, read-out: Antiviral efficacy EC50 (95% CI)

NC(N)=Nc1ccc(C(=O)OCCN2CCN(C(=O)N[C@@H](Cc3ccccc3)C(=O)N[C@H](/C=C/S(=O)(=O)c3ccccc3)CCc3ccccc3)CC2)cc1 [212-148]
IC50 (human CTSL): 2.13 nM
Inhibition: CTSB (human CTSB; 212-148 0.12207 nM, Fig. 5c): 8.76% and 9.57% and 12.06%
inhibition at 0.00012207 µM (human CTSB; 212-148 0.12207 nM, Fig. 5c): 9.32%
Inhibition: CTSB (human CTSB; 212-148 0.976562 nM, Fig. 5c): 5.21% and 6.50% and 2.50% and 12.34%
Inhibition: CTSB (human CTSB; 212-148 1.95312 nM, Fig. 5c): 10.95% and 10.99% and 12.44%
inhibition at 0.00195312 µM (human CTSB; 212-148 1.95312 nM, Fig. 5c): 20.7%
Inhibition: CTSB (human CTSB; 212-148 7.8125 nM, Fig. 5c): 6.62% and 15.92% and 9.45% and 14.93%
Inhibition: CTSB (human CTSB; 212-148 15.625 nM, Fig. 5c): 29.27% and 18.56% and 15.75%
inhibition at 0.015625 µM (human CTSB; 212-148 15.625 nM, Fig. 5c): 20.2%
Inhibition: CTSB (human CTSB; 212-148 31.25 nM, Fig. 5c): 38.89% and 26.87% and 33.63%
inhibition at 0.03125 µM (human CTSB; 212-148 31.25 nM, Fig. 5c): 31.5%
Inhibition: CTSB (human CTSB; 212-148 62.5 nM, Fig. 5c): 49.58% and 58.40% and 54.67%
inhibition at 0.0625 µM (human CTSB; 212-148 62.5 nM, Fig. 5c): 52.1%
Inhibition: CTSB (human CTSB; 212-148 125 nM, Fig. 5c): 77.49% and 76.59% and 75.86%
inhibition at 0.125 µM (human CTSB; 212-148 125 nM, Fig. 5c): 76.8%
Inhibition: CTSB (human CTSB; 212-148 250 nM, Fig. 5c): 92.13% and 95.19% and 101.10%
inhibition at 0.25 µM (human CTSB; 212-148 250 nM, Fig. 5c): 95.4%
Inhibition: CTSB (human CTSB; 212-148 500 nM, Fig. 5c): 95.97% and 101.09% and 103.70%
inhibition at 0.5 µM (human CTSB; 212-148 500 nM, Fig. 5c): 101%
Inhibition: CTSB (human CTSB; 212-148 1000 nM, Fig. 5c): 100.47% and 101.20% and 101.53%
inhibition at 1 µM (human CTSB; 212-148 1000 nM, Fig. 5c): 98.8%
Inhibition: CTSB (human CTSB; 212-148 2000 nM, Fig. 5c): 98.63% and 99.08% and 103.05%
inhibition at 2 µM (human CTSB; 212-148 2000 nM, Fig. 5c): 102%
IC50 (human CTSB; substrate Cbz-Phe-Arg-AMC, pH 5.5, mean ± SD, four replicates): 64.1 nM
Inhibition: BA.2/Huh-7 ([1]; 212-148 0.00128 μM, Fig. 5d): 25.89% and 19.49%
Inhibition: BA.2/Huh-7 ([1]; 212-148 0.8 μM, Fig. 5d): 91.14% and 94.17%
Inhibition: BA.2/Huh-7 ([1]; 212-148 4 μM, Fig. 5d): 97.31% and 97.73%
Inhibition: BA.2/Huh-7 ([1]; 212-148 20 μM, Fig. 5d): 84.53% and 89.27%
inhibition at 0.00128 µM ([1]; Severe acute respiratory syndrome coronavirus 2, Huh-7, 120 h, 212-148 0.00128 μM, Fig. 5d): 38.3%
inhibition at 0.8 µM ([1]; Severe acute respiratory syndrome coronavirus 2, Huh-7, 120 h, 212-148 0.8 μM, Fig. 5d): 99.7%
inhibition at 4 µM ([1]; Severe acute respiratory syndrome coronavirus 2, Huh-7, 120 h, 212-148 4 μM, Fig. 5d): 83.7%
inhibition at 20 µM [1, 4]: 97.9%
EC50 [1, 5]: 5.7 nM
Inhibition: BA.2.12.1/Huh-7 ([2]; 212-148 0.0002 μM, Fig. 5d): 25.45% and 41.55%
Inhibition: BA.2.12.1/Huh-7 ([2]; 212-148 0.002 μM, Fig. 5d): 72.96% and 74.23%
Inhibition: BA.2.12.1/Huh-7 ([2]; 212-148 0.02 μM, Fig. 5d): 77.85% and 80.42%
Inhibition: BA.2.12.1/Huh-7 ([2]; 212-148 0.2 μM, Fig. 5d): 82.33% and 85.32%
Inhibition: BA.2.12.1/Huh-7 ([2]; 212-148 2 μM, Fig. 5d): 85.90% and 86.81%
Inhibition: BA.2.12.1/Huh-7 ([2]; 212-148 20 μM, Fig. 5d): 92.77% and 92.47%
inhibition at 0.0002 µM ([2]; Severe acute respiratory syndrome coronavirus 2, Huh-7, 120 h, 212-148 0.0002 μM, Fig. 5d): 26.2%
inhibition at 0.002 µM ([2]; Severe acute respiratory syndrome coronavirus 2, Huh-7, 120 h, 212-148 0.002 μM, Fig. 5d): 70.2%
inhibition at 0.02 µM ([2]; Severe acute respiratory syndrome coronavirus 2, Huh-7, 120 h, 212-148 0.02 μM, Fig. 5d): 75.2%
inhibition at 0.2 µM ([2]; Severe acute respiratory syndrome coronavirus 2, Huh-7, 120 h, 212-148 0.2 μM, Fig. 5d): 82.3%
inhibition at 2 µM ([2]; Severe acute respiratory syndrome coronavirus 2, Huh-7, 120 h, 212-148 2 μM, Fig. 5d): 86.3%
inhibition at 20 µM [2, 4]: 91.6%
EC50 [2, 5]: 0.4 nM
Inhibition: BA.4.5/Huh-7 ([3]; 212-148 2e-5 μM, Fig. 5d): 20.50% and 13.32% and 20.61%
Inhibition: BA.4.5/Huh-7 ([3]; 212-148 0.0002 μM, Fig. 5d): 32.55% and 30.98%
Inhibition: BA.4.5/Huh-7 ([3]; 212-148 0.002 μM, Fig. 5d): 62.17% and 52.89%
Inhibition: BA.4.5/Huh-7 ([3]; 212-148 0.02 μM, Fig. 5d): 82.60% and 83.49%
Inhibition: BA.4.5/Huh-7 ([3]; 212-148 0.2 μM, Fig. 5d): 89.43% and 91.48%
Inhibition: BA.4.5/Huh-7 ([3]; 212-148 2 μM, Fig. 5d): 89.92% and 91.92%
Inhibition: BA.4.5/Huh-7 ([3]; 212-148 20 μM, Fig. 5d): 95.01% and 96.39%
inhibition at 0.0002 µM ([3]; Severe acute respiratory syndrome coronavirus 2, Huh-7, 120 h, 212-148 0.0002 μM, Fig. 5d, read-out: Inhibition: BA.4.5/Huh-7): 43.8%
inhibition at 0.002 µM ([3]; Severe acute respiratory syndrome coronavirus 2, Huh-7, 120 h, 212-148 0.002 μM, Fig. 5d, read-out: Inhibition: BA.4.5/Huh-7): 63.5%
inhibition at 0.02 µM ([3]; Severe acute respiratory syndrome coronavirus 2, Huh-7, 120 h, 212-148 0.02 μM, Fig. 5d, read-out: Inhibition: BA.4.5/Huh-7): 84.4%
inhibition at 0.2 µM ([3]; Severe acute respiratory syndrome coronavirus 2, Huh-7, 120 h, 212-148 0.2 μM, Fig. 5d, read-out: Inhibition: BA.4.5/Huh-7): 86.9%
inhibition at 2 µM ([3]; Severe acute respiratory syndrome coronavirus 2, Huh-7, 120 h, 212-148 2 μM, Fig. 5d, read-out: Inhibition: BA.4.5/Huh-7): 86.8%
inhibition at 20 µM ([3]; Severe acute respiratory syndrome coronavirus 2, Huh-7, 120 h, 212-148 20 μM, Fig. 5d, read-out: Inhibition: BA.4.5/Huh-7): 92.5%
EC50 [3, 5]: 0.4 nM
Cytotoxicity (Calu-3 cells; 0.15 μM): 2.30% and 2.49% and 2.76%
Cytotoxicity (Calu-3 cells; 0.46 μM): 5.33% and 5.48% and 5.69%
Cytotoxicity (Calu-3 cells; 4.1 μM): -1.17% and -0.96% and -0.67%
Cytotoxicity (Calu-3 cells; 12.3 μM): 0.51% and 0.76% and 1.02%
Cytotoxicity (Calu-3 cells; 111.1 μM): -1.18% and -0.95% and -0.65%
Cytotoxicity (Calu-3 cells; 333.3 μM): 32.20% and 32.35% and 32.61%
Cytotoxicity (Calu-3 cells; 1000 μM): 84.78% and 84.85% and 84.92%
content remaining (LC-MS) (after two days in the medium that contains FBS, 125 μM): more than 50%
stability compared (in words) (same conditions as cell assay media): more stable than nafamostat
CC50 (in vitro): 347000 nM
